Measured values reported in patent US10045987B2, “Imidazoyl anilide derivatives and methods of use” (Codexis, Inc., priority 2014, dated 2018).

Key:
K-562 cells = experiment: K-562 cytotoxicity assay, CellTiter 96 Aqueous One, 72 hours; settings: for K-562 IC50: 72 hours, CellTiter 96, class relative to nilotinib
hERG potassium channels = hERG potassium channels (Homo sapiens, UniProt Q12809)
Experimental: CHO cells stably expressing hERG potassium channels obtained from Aviva BioSciences were used for this test.
Visual check for precipitation was conducted before testing.
The hERG QPatchHTX assay was conducted at room temperature. The whole-cell protocols, voltage protocols and application protocols were established with QPatch Assay Software 5.0 (Sophion).

[1] = system: K562 lymphoblast cell line; experiment: K562 cytotoxicity assay at RBC, Cell Titer-Glo 2.0, 72 hours; assay type: cell-based; settings: class relative to nilotinib
Experimental: In this Example, experiments conducted at RBC to assess the cytotoxicity of nilotinib and compounds 14, 17, 19, 21, and 22 (i.e., test compounds) are described. All of the test compounds were kept between 4° C. to 8° C. in solid form or as solution in DMSO.
The cell line K562 was obtained from the ATCC. Test compounds were dissolved in DMSO (1 mM stock). Cell Titer-Glo® 2.0 Luminescent cell viability assay reagent was obtained from Promega. K562 lymphoblast cell line was cultured in Iscove's Modified Dulbecco's medium supplemented with 10% FBS. 100 μg/ml penicillin and 100 μg/ml streptomycin were added to all culture media. Cultures were maintained at 37° C. in a humidified atmosphere of 5% CO2 and 95% air. Test compounds in DMSO were added in a source plate. 25 nL of test compounds was delivered from the source plate to each well of the 384-well cell culture plates by Echo 550. 25 μl of culture medium containing 1000 cells for each cell line was added to the wells of the cell culture plates. Cells were incubated with test compounds at 37° C., 5% CO2 for 72 hours. 25 μl of Cell Titer Glo 2.0 reagent was added to each well. The contents were mixed on an orbital shaker for 2 minutes and incubated at room temperature for 10 minutes to stabilize luminescent signal. Luminescence was recorded by Envision 2104 Multilabel Reader (PerkinElmer). The number of viable cells in culture was determined based on quantization of the ATP present in each culture well. The IC50 values were calculated and the IC50 curves were plotted using the GraphPad Prism 4 program based on a sigmoidal dose-response equation.

cKit[h] = molecular target: T1, cKit[h] (Homo sapiens, UniProt P10721); experiment: cKit kinase assay at Merck-Milliore (standard protocol); assay type: biochemical
T1 construct: purchased Merck-Milliore (contract assay service)
Experimental: (§1) The assays were performed at Merck-Milliore, using their standard assay protocols

PDGFRα[h] = PDGFRα[h] (Homo sapiens, UniProt P16234); experiment: biochemical
Experimental: as §1

Flt1[h] = molecular target: T2, Flt1[h] (Homo sapiens, UniProt P17948); experiment: Flt1 kinase assay at Merck-Milliore (standard protocol); assay type: biochemical
T2 construct: purchased Merck-Milliore (contract assay service)
Experimental: as §1

cSRC = molecular target: T3, cSRC (Homo sapiens, UniProt P12931); experiment: cSRC kinase assay at Merck-Milliore (standard protocol); assay type: biochemical
T3 construct: purchased Merck-Milliore (contract assay service)
Experimental: as §1

SMILES	K-562 IC50 (K-562 cells)	hERG inhibition compared with Nilotinib (hERG potassium channels)	K-562 IC50 (RBC) [1]	further results
Cc1ccc(C(=O)Nc2cc(-n3cnc(COC(N)=O)c3)cc(C(F)(F)F)c2)cc1Nc1nccc(-c2cccnc2)n1 [Compound 12]	+++ (IC50 more than 75% great than IC50 for nilotinib)	less inhibiting to hERG than Nilotinib		IC50 (K-562 cells; Homo sapiens, K562, 72 h, read-out: K-562 IC50): < 1 nM
COC(=O)CNCc1cn(-c2cc(NC(=O)c3ccc(C)c(Nc4nccc(-c5cccnc5)n4)c3)cc(C(F)(F)F)c2)cn1 [Compound 22]			− (IC50 more than 25% great than IC50 for nilotinib)	
Cc1ccc(C(=O)Nc2cc(-n3cnc(CNCC(=O)O)c3)cc(C(F)(F)F)c2)cc1Nc1nccc(-c2cccnc2)n1 [Compound 21]			− (IC50 more than 25% great than IC50 for nilotinib)	
Cc1cn(-c2cc(NC(=O)c3ccc(C)c(Nc4nccc(-c5cccnc5)n4)c3)cc(C(F)(F)F)c2)cn1 [Compound 1, 4-methyl-N-[3-(4-methyl-1H-imidazol-1-yl)-5-(trifluoromethyl)phenyl]-3-[(4-pyridin-3-ylpyrimidin-2-yl)amino]benzamide, reference compound]	+		+	
Cc1ccc(C(=O)Nc2cc(-n3cnc(COC(=O)C4CC4)c3)cc(C(F)(F)F)c2)cc1Nc1nccc(-c2cccnc2)n1 [Compound 11]	++ (IC50 more than 25% smaller than IC50 for nilotinib)	less inhibiting to hERG than Nilotinib		
Cc1ccc(C(=O)Nc2cc(-n3cnc(CO)c3)cc(C(F)(F)F)c2)cc1Nc1nccc(-c2cccnc2)n1 [Compound 2, N-[3-[4-(hydroxymethyl)imidazol-1-yl]-5-(trifluoromethyl)phenyl]-4-methyl-3-[[4-(3-pyridyl)pyrimidin-2-yl]amino]benzamide]	++ (IC50 more than 25% smaller than IC50 for nilotinib)	less inhibiting to hERG than Nilotinib		IC50 (cKit[h]): 1300 nM; IC50 (PDGFRα[h]): 1900 nM; IC50 (Flt1[h]): 1100 nM; hERG IC50 (μM) (hERG potassium channels): +; IC50 (cSRC): 1300 nM
